Patent US10724010B2 (The Regents of the University of California, priority 2013, dated 2020)
Where two headings read alike, the source gives them in different places.

How the values were obtained:
[1] = test system: Azospira suillum strain PS (wild type); settings: grown aerobically, 40 μM chlorite
Description: (§1) Azospira suillum PS (ATCC BAA-33/DSMZ 13638) was revived from a lab freezer stock and used as the wild-type strain for all genetic manipulations. Various E. coli strains were also used for cloning and conjugation purposes. Prior to all growth curves and genetic manipulations, all strains were streaked out from master freezer stocks to get single colonies.
(§2) E. coli strains were grown in LB media. Kanamycin (Kan, […]) was used for selection and diaminopimelic acid (DAP, 0.3 mM) was used as a supplement to cultivate the auxotrophic strain WM3064. For routine culturing as well as growth assays, wild-type and mutant strains of PS were grown in ALP media. One liter of ALP media is composed of 0.49 g monobasic sodium phosphate dihydrate, 0.97 g dibasic anhydrous sodium phosphate, 0.1 g potassium chloride, 0.25 g ammonium chloride, 0.82 g sodium acetate, 2.0 g yeast extract, 7.6 g of a 60% w/w sodium lactate solution, 1.10 g sodium pyruvate and 10 mL of both vitamin mix and mineral mix. To make solid ALP media for plates, 15 g/L agar was added. Kanamycin was used for selection of PS mutants at a concentration of […]. For anaerobic growth of PS, ALP media was supplemented with either 5 mM sodium nitrate, 2.5 mM sodium perchlorate, or 5 mM of both sodium nitrate and sodium perchlorate.

[2] = test system: Azospira suillum strain PS Δcld mutant; settings: grown aerobically, 40 μM chlorite
Description: as §1, §2

[3] = test system: Caulobacter crescentus NA1000 harboring pJS14-xylX::cld; settings: PYE with 0.3% xylose
Description: (§3) Wild-type Caulobacter crescentus NA1000 (Marks, M. E., et al. (2010) J. Bacteriol. 192:3678-88) was grown in peptone-yeast extract medium (PYE; see Ely, B. (1991) Methods Enzymol. 204:372-84) supplemented with 0.1% (v/v) ferrous sulphate/chelate solution (Sigma # F0518). The plasmid pJS14 is a derivative of the broad-host-range cloning vector pBBR1MCS (Kovach, M. E., et al. (1994) Biotechniques 16:800-2), which confers resistance to chloramphenicol. To express Cld from pJS14, the cld open reading frame from P. chloritidismutans was placed behind a ˜430 base pair NcoI-EcoRI fragment of the xylX promoter from C. crescentus (Meisenzahl, A. C., et al. (1997) J. Bacteriol. 179:592-600). pJS14-xylX::cld or the empty vector pJS14 was transformed into NA1000 with selection using 1 μg/ml chloramphenicol.
(§4) The two strains were grown separately in PYE/chloramphenicol/ferrous sulphate supplemented with 0.3% xylose to induce cld expression. […] Each strain/condition was assayed in six individual wells.

[4] = test system: wild-type Caulobacter crescentus NA1000 harboring pJS14; settings: PYE with 0.3% xylose
Description: as §3, §4

[5] = test system: Caulobacter strain KR260 (empty plasmid); settings: 0.5 mM chlorite, 1:1 co-culture with KR3557, 30° C
Description: (§5) Caulobacter crescentus NA 1000 harboring either pJS71 (KR260) or pJS14-xylX::cld (KR3557) were grown in PYE medium supplemented with 0.1% ferrous sulphate/chelate (Sigma # F0518) and 0.3% xylose to induce cld expression. pJS71 is a derivative of the broad-host-range plasmid pBBR1MCS (Kovach, M. E., et al. (1994) Biotechniques 16:800-2), which confers resistance to spectinomycin. […] Samples were withdrawn from each co-culture at the indicated times, diluted, and plated on PYE medium supplemented with 1 μg/ml chloramphenicol or with 100 μg/ml spectinomycin to enumerate survivors of each species.
(§6) Rather, both strains were co-cultured in PYE medium without selection, samples were taken, and the number of surviving colonies that were resistant to spectinomycin (KR260) or chloramphenicol (KR3557) were counted at the indicated times (FIG. 8).

[6] = test system: Caulobacter strain KR3557 (chlorite dismutase expression plasmid); settings: 0.5 mM chlorite, 1:1 co-culture with KR260, 30° C
Description: as §5, §6

[7] = test system: Shewanella oneidensis strain MR-1 wild type containing an empty expression vector (strain RAM13); settings: aerobic
[8] = test system: Shewanella oneidensis strain MR-1 engineered strain (ICC38); settings: aerobic
[9] = test system: Pseudomonas chloritidismutans; settings: LB, 60 μM chlorite alone, 37° C
Description: (§7) For growth experiments, P. chloritidismutans was grown in LB medium to an OD600 of 0.233 (selected from a dilution series made from an overnight culture). […] Each condition was replicated in six wells of a microtiter plate incubated at 37° C. Optical density (600 nm) was recorded during growth in a plate reader.

[10] = test system: bacteriophage that attacks Pseudomonas chloritidismutans; settings: LB, 60 μM chlorite plus phage together, 37° C
Description: as §7

lytic phage particles = settings: culture medium treated with chlorite at 15 mM; cited from earlier work

## chlorite
[1]
  growth of the wild type strain: unimpaired
[2]
  growth of the Δcld mutant: no growth is observed
[3]; 1 mM chlorite
  growth of Caulobacter expressing chlorite dismutase versus control medium lacking chlorite: growing at the same rate
[3]; 4 mM chlorite
  growth of Caulobacter expressing chlorite dismutase versus control medium lacking chlorite: growing at the same rate
[4]; 1 mM chlorite
  growth of wild-type Caulobacter (pJS14): completely blocked
[4]; 4 mM chlorite
  growth of wild-type Caulobacter (pJS14): completely blocked
[5]
  growth of KR260 in co-culture: completely blocked
[6]
  growth of KR3557 in co-culture: slightly reduced rate
[7]; 250 μM chlorite
  growth of the wild type strain (RAM13): significant reduction in the growth rate
[7]; 1000 μM chlorite
  growth of the wild type strain (RAM13): completely inhibited
[8]; 250 μM chlorite
  growth of the recombinantly engineered strain (ICC38): unimpaired
[8]; 1000 μM chlorite
  growth of the recombinantly engineered strain (ICC38): minimal growth impairment
[9]
  growth of P. chloritidismutans: did not hinder the growth
[10]
  growth of P. chloritidismutans with live phage: wild-type growth rate
Lytic phage particles
  reduction in lytic phage particles: greater than 99%
